# According to patent US10906916B2, “Thienopyrimidinones as ubiquitin-specific protease 7 inhibitors” (Valo Early Discovery, Inc., priority 2015, dated 2021):
# Target: T1, USP7 (construct USP7 (208-1102) 6*His) (Homo sapiens, UniProt Q93009)
# T1 construct: USP7, construct USP7 (208-1102) 6*His, Viva Biotech; 6xHis; purchased Viva Biotech
# Experiment: USP7 Assay (Ubiquitin-Rhodamine110 Assay)
# Type: biochemical
# Details: Ub-Rh110 substrate 25 nM, enzyme 62.5 pM, 30 min preincubation; read-out: USP7_IC50
# Experimental: Each assay was performed in a final volume of 15 μL in assay buffer containing 20 mM Tris-HCl (pH 8.0, (1M Tris-HCl, pH 8.0 solution; Corning 46-031-CM)), 1 mM GSH (L-Glutathione reduced; Sigma #G4251), 0.03% BGG (0.22 μM filtered, Sigma, #G7516-25G), and 0.01% Triton X-100 (Sigma, #T9284-10L). Nanoliter quantities of either an 8-point or 10-point, 3-fold serial dilution in DMSO was pre-dispensed into assay plates (Perkin Elmer, ProxiPlate-384 F Plus, #6008269) for a final test concentration range of either 25 μM to 11 nM or 25 μM to 1.3 nM, respectively. The final concentration of the enzyme (USP7, construct USP7 (208-1102) 6*His, Viva Biotech) in the assay was 62.5 pM. Final substrate (Ub-Rh110; Ubiquitin-Rhodamine 110, R&D Systems #U-555) concentration was 25 nM with [Ub-Rh110]<<Km. 5 μL of 2× enzyme was added to assay plates (pre-stamped with compound) preincubated with USP7 for 30 min and then 5 μL of 2× Ub-Rh110 was added to assay plates. Plates were incubated stacked for 20 min at room temperature before addition of 5 μL, of stop solution (final concentration of 1.0 mM citric acid in assay buffer (Sigma, #251275-500G)). Fluorescence was read on the Envision (Excitation at 485 nm and Emission at 535 nm; Perkin Elmer) or on the PheraSTAR (Excitation at 485 nm and Emission at 535 nm; BMG Labtech).
# Data from USP7 Assay was reported as percent inhibition (inh) compared with control wells based on the following equation: % inh=1−((FLU−AveLow)/(AveHigh−AveLow)) where FLU=measured Fluorescence; AveLow=average Fluorescence of no enzyme control (n=16); and AveHigh=average Fluorescence of DMSO control (n=16). IC50 values were determined by curve fitting of the standard 4 parameter logistic fitting algorithm included in the Activity Base software package: IDBS XE Designer Model205. Data is fitted using the Levenburg Marquardt algorithm.
# T1 sequence (Q93009 208-1102): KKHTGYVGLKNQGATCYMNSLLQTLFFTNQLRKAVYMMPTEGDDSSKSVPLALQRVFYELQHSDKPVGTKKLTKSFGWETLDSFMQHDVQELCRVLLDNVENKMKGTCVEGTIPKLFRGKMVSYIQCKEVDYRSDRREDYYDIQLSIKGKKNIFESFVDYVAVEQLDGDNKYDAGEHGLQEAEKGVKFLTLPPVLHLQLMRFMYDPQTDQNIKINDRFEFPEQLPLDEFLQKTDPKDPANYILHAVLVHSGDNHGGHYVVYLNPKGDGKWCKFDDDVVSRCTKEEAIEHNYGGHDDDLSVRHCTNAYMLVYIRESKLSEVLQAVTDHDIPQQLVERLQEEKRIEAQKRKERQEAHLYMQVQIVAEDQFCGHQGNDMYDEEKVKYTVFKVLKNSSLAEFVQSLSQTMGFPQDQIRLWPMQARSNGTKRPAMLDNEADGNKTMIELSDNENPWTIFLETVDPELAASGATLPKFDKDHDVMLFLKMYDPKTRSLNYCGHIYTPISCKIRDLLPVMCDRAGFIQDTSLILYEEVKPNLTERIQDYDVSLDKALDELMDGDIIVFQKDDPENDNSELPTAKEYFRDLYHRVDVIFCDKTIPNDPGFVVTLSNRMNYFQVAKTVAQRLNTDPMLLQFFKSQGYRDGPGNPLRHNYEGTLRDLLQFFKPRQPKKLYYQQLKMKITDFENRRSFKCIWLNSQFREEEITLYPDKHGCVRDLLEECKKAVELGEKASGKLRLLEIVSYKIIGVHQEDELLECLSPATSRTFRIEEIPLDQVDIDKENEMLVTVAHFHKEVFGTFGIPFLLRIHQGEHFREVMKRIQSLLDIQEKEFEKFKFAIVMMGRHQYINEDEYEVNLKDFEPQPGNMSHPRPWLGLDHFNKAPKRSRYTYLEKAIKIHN
row,SMILES,IC50 [nM]
1,"CN(C)C/C=C/C(=O)NCCCC(=O)N1CCC(O)(Cn2cnc3c(-c4ccc(F)cc4)csc3c2=O)CC1 [Compound I-12, (E)-4-(dimethylamino)-N-(4-(4-((7-(4-fluorophenyl)-4-oxothieno[3,2-d]pyrimidin-3(4H)-yl)methyl)-4-hydroxypiperidin-1-yl)-4-oxobutyl)but-2-enamide]",1000 to 10000
2,"Cc1cc2c(=O)n(CC3(O)CCN(C(=O)CC(C)c4ccccc4)CC3)cnc2s1 (stereo not drawn) [Compound I-6, 3-((4-hydroxy-1-(3-phenylbutanoyl)piperidin-4-yl)methyl)-6-methylthieno[2,3-d]pyrimidin-4(3H)-one]",< 300
3,"CC(CC(=O)N1CCC(O)(Cn2cnc3sccc3c2=O)CC1)c1ccccc1 (stereo not drawn) [Compound I-1, 3-((4-hydroxy-1-(3-phenylbutanoyl)piperidin-4-yl)methyl)thieno[2,3-d]pyrimidin-4(3H)-one]",300 to 1000
4,"CN(C)C/C=C/C(=O)NCCCCC(=O)N1CCC(O)(Cn2cnc3c(-c4ccc(F)cc4)csc3c2=O)CC1 [Compound I-11, (E)-4-(dimethylamino)-N-(5-(4-((7-(4-fluorophenyl)-4-oxothieno[3,2-d]pyrimidin-3(4H)-yl)methyl)-4-hydroxypiperidin-1-yl)-5-oxopentyl)but-2-enamide]",1000 to 10000
5,"CCc1cc2c(=O)n(CC3(O)CCN(C(=O)CC(C)c4ccccc4)CC3)cnc2s1 (stereo not drawn) [Compound I-7, 6-ethyl-3-((4-hydroxy-1-(3-phenylbutanoyl)piperidin-4-yl)methyl)thieno[2,3-d]pyrimidin-4(3H)-one]",< 300
6,"CC(CC(=O)N1CCC(O)(Cn2cnc3sc4c(c3c2=O)CCC4)CC1)c1ccccc1 (stereo not drawn) [Compound I-3, 3-((4-hydroxy-1-(3-phenylbutanoyl)piperidin-4-yl)methyl)-3,5,6,7-tetrahydro-4H-cyclopenta[4,5]thieno[2,3-d]pyrimidin-4-one]",1000 to 10000
7,"O=C(c1ccccc1)N1CCC(O)(Cn2cnc3c(-c4ccc(F)cc4)csc3c2=O)CC1 [Compound I-10, 3-((1-benzoyl-4-hydroxypiperidin-4-yl)methyl)-7-(4-fluorophenyl)thieno[3,2-d]pyrimidin-4(3H)-one]",1000 to 10000
8,"CC(CC(=O)N1CCC(O)(Cn2cnc3sc4c(c3c2=O)CCCC4)CC1)c1ccccc1 (stereo not drawn) [Compound I-2, 3-((4-hydroxy-1-(3-phenylbutanoyl)piperidin-4-yl)methyl)-5,6,7,8-tetrahydrobenzo[4,5]thieno[2,3-d]pyrimidin-4(3H)-one]",> 10000
9,"CCC(CC(=O)N1CCC(O)(Cn2cnc3sccc3c2=O)CC1)c1ccccc1 (stereo not drawn) [Compound I-5, 3-((4-hydroxy-1-(3-phenylpentanoyl)piperidin-4-yl)methyl)thieno[2,3-d]pyrimidin-4(3H)-one]",1000 to 10000
10,"COc1ccc(C(=O)N2CCC(O)(Cn3cnc4c(-c5ccc(F)cc5)csc4c3=O)CC2)cc1 [Compound I-9, 7-(4-fluorophenyl)-3-((4-hydroxy-1-(4-methoxybenzoyl)piperidin-4-yl)methyl)thieno[3,2-d]pyrimidin-4(3H)-one]",1000 to 10000
11,"Cc1sc2ncn(CC3(O)CCN(C(=O)CC(C)c4ccccc4)CC3)c(=O)c2c1C (stereo not drawn) [Compound I-8, 3-((4-hydroxy-1-(3-phenylbutanoyl)piperidin-4-yl)methyl)-5,6-dimethylthieno[2,3-d]pyrimidin-4(3H)-one]",> 10000
12,"CCCc1cc2c(=O)n(CC3(O)CCN(C(=O)CC(C)c4ccccc4)CC3)cnc2s1 (stereo not drawn) [Compound I-4, 3-((4-hydroxy-1-(3-phenylbutanoyl)piperidin-4-yl)methyl)-6-propylthieno[2,3-d]pyrimidin-4(3H)-one]",300 to 1000
